The values that follow are results of earlier work, collected in US20210198372A1, “METHODS FOR DOSING AND FOR MODULATION OF GENETICALLY ENGINEERED CELLS” (Juno Therapeutics, Inc., priority 2017, published 2021).

The conditions of the data set: equivalence in terms of potency for various glucocorticoids; route (IV or PO; IV; none).
Regarding `C[C@]12C=CC(=O)C=C1CC[C@@H]1[C@@H]2[C@@H](O)C[C@@]2(C)[C@H]1CC[C@]2(O)C(=O)CO` [Prednisolone], the “Equivalency Potency” value is reported as 5. For `C[C@H]1C[C@@H]2[C@H]([C@@H](O)C[C@@]3(C)[C@H]2CC[C@]3(O)C(=O)COC(=O)CCC(=O)O)[C@@]2(C)C=CC(=O)C=C12` [Methylprednisolone sodium succinate], the “Equivalency Potency” value was 4.

`C[C@]12CCC(=O)C=C1CC[C@@H]1[C@@H]2[C@@H](O)C[C@@]2(C)[C@H]1CC[C@]2(O)C(=O)CO` [Hydrocortisone]: the “Equivalency Potency” value is reported as 20.
